According to US20060287252A1, “Substances k01-0509 and process for producing the same” (priority 2004, published 2006):

Legend:
Format in all cases: cell-based
[1] = system: Xanthomonas campestris pv. oryzae KB88
[2] = system: Bacillus subtilis ATCC 6633; assay: Antibiotic activity by paper disc method; details: 10 μg/disc, paper disc 6 mm, nutrient agar, 24 hours cultivation
[3] = system: Micrococcus luteus ATCC 9341; assay: Antibiotic activity by paper disc method; details: 10 μg/disc, paper disc 6 mm, nutrient agar, 24 hours cultivation
E. coli NIHJ = assay: Antibiotic activity by paper disc method; details: 10 μg/disc, paper disc 6 mm, nutrient agar, 24 hours cultivation
[4] = system: enteropathogenic E. coli E2348/69 (wild strain)

Measured: inhibition zone

CC(NC(=O)C1NC(C)C(=O)NC1CCC(O)C(O)CC1CNC(=N)N1C(N)=O)C(=O)NC(C(=O)O)C(C)C (stereo not shown) [K01-0509-A1 substance]
no inhibition zone: all assays above

CC(NC(=O)C1NC(C)C(=O)NC1CCC(O)C(O)CC1CNC(=N)N1C(N)=O)C(=O)NC(C(=O)O)C(C)C (stereo not shown) [K01-0509-A2 substance]
no inhibition zone: [1] | [4]
